From US20210267948A1, “TREATMENT OF CANCER” (CITY OF HOPE, priority 2017, published 2021)

Legend:
[1] = tested on: TOV112D xenograft tumors; experiment: TOV112D mouse xenograft; type: in vivo; details: oral 200, 300 or 400 mg/kg, 7 days
Experimental: (§1) FIGS. 12A-12D depict the activity of COH29 in mouse xenografts. Cancer cells were implanted and allowed to grow at the subcutaneous site until the tumor was measurable. Subcutaneous xenograft growth curves for leukemic-(MOLT-4) mice treated for 12 days with oral COH29 in twice-daily dosing at 50 and 100 mg/kg (FIG. 12A) and for ovarian cancer bearing mice (TOV112D) treated for 7 days with 200, 300, or 400 mg/kg of oral COH29 (FIG. 12B) (shown are the average±SDs for 4 animals/group). FIG. 12C depicts the activity of RNR in MOLT-4 tumor xenografts from mice treated with vehicle (solutol-15) or 100 mg/kg of oral COH29 for 12 days. FIG. 12D depicts the effect of oral COH29 on intratumoral dTNP pools from MOLT-4 tumor xenografts.

[2] = biological target: T1, ribonucleotide reductase (Homo sapiens, UniProt P31350); experiment: RNR activity and dNTP pools in MOLT-4 tumor xenografts; type: in vivo, mouse; details: MOLT-4 xenografts
T1 construct: from tissue; host or cells: MOLT-4 subcutaneous tumour xenografts from mice dosed orally with COH29
T1 sequence (P31350 whole entry): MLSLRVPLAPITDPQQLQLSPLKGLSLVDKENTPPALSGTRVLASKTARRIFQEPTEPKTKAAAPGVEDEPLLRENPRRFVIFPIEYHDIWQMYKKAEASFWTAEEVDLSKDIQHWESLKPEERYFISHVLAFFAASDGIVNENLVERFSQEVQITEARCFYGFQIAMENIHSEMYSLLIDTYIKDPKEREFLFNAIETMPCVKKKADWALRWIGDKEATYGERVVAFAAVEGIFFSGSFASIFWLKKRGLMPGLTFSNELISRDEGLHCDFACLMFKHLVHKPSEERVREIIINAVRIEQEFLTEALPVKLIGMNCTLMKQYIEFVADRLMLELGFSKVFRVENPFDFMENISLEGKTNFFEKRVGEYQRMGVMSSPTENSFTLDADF
Experimental: as §1

[3] = tested on: HCC1937; experiment: Microarray gene ontology enrichment, HCC1937; type: cell-based, human; details: genes downregulated, HCC1937-COH29 vs HCC1937
Experimental: FDR values were calculated using the method of Benjamini and Hochberg (28) from the distribution of ANOVA with Linear Contrastp-values. Gene ontology (GO) (29) enrichment analysis was performed within PARTEK® GENOMICS SUITE™, and GO categories were defined significant with a Fisher Exact test p-value<0.05.
To identify the mechanism through which COH29 preferentially lyses BRCA1-mutant human cancer cells, genome-wide microarray analysis was performed using the AFFYMETRIX® GENECHIP® microarray platform to identify the gene expression profiles and pathways affected by COH29 treatment. The RNA expression profile of COH29 treated HCC1937 breast cancer cells lacking BRCA1 was compared with that of COH29 treated HCC1937+BRCA1 cells. […] For example, DNA ligation involved in DNA repair is more strongly enriched in HCC1937 cells which may relate to the phenotypic effect.

[4] = tested on: MCF7 cells containing wild-type p53; experiment: DNA damage checkpoint Western blot, MCF-7; type: cell-based, human
Experimental: FIG. 6. COH29 treatment activates DNA damage checkpoint. The effect of COH29 treatment on DNA damage checkpoint proteins in human breast cancer cells expressing wt p53 (MCF-7) or defective for p53 (MCF-7p53−/−), and in triple-negative breast cancer cells (MDA-MB-468) assessed by Western Blot.
(§2) For subcellular fractionation, cells were trypsinized and washed with cold PBS solution twice. After centrifugation at 1,200 g for 5 min, cells were incubated in buffer (50 mM HEPES, pH 7.5, 150 mM NaCl, 1 mM EDTA) containing 0.2% NONIDET™ P-40 (NP-40), supplemented with protease inhibitors (5 μg/ml each of pepstatin, leupeptin, and aprotinin) and phosphatase inhibitors on ice for 5 min. Following centrifugation at 1,000 g for 5 min, the supernatant was collected (i.e., cytoplasmic fraction) and pellets were washed with the same buffer twice. The washed samples were extracted for 40 min on ice with fractionation buffer containing 0.5% NP-40 for nuclear fraction. All the samples were sonicated and clarified by centrifugation at 16,000 g for 15 min. Protein concentrations of all fractions were determined with Bio-Rad Protein Assay (Bio-Rad Laboratories, Hercules, Calif.). Immunoblotting was performed as described previously (21,22). […] The immunoblots were visualized on film with the West-Q chemi-luminescence kit (GenDEPOT, Barker, Tex.).

[5] = tested on: A549 cells; experiment: DDR proteins in A549 cells (Western blot, immunofluorescence); type: cell-based, human
Experimental: Immunofluorescence experiments were conducted as described previously (21,22). Specifically, A549 cells were grown on glass coverslips. After treatment with COH29 (1 or 10 μM) for 24 or 48 hours, cells were fixed with 4% paraformaldehyde for 10 min and permeabilized with TRITON™ X-100 (0.5%). The coverslips were washed with phosphate-buffered saline (PBS) and blocked with PBS-containing 2% bovine serum albumin (BSA), incubated with an Ab specific to FOXO3 or ATM-pS1981 or γ-H2AX or p53-pS15 (1:50-1:200 dilution), followed by Alexa 488-conjugated anti-rabbit or anti-mouse (1:200), Alexa 594-conjugated anti-goat (1:100) secondary Abs (Molecular Probes). Cells were incubated with 4′,6-diamidino-2-phenylindole (DAPI; Sigma) to stain the nuclei. Specific staining was visualized and images were captured with a Leica SP2 AOBS confocal laser scanning microscope. To measure foci-positive cells, ˜300 cells were used randomly captured by confocal microscopy. The percentages of considering foci-positive cells were calculated from cells containing at least five foci. Each error bar presented is the mean of standard deviation.
as §2, with “All the samples were sonicated and clarified by centrifugation at 16,000 g for 15 min.” left out, “Calif.).” for “Calif.). Immunoblotting was performed as described previously (21,22).”

[6] = tested on: EJ5 cells (NHEJ pathway); experiment: NHEJ repair GFP reporter (EJ5-GFP); type: cell-based; details: 24 h
Experimental: The EJ2 cells were generated to evaluate Alt-NHEJ through monitoring the fluorescence intensity of GFP, and EJ5 cells were used to determine NJEJ, as described previously (23). Cells were seeded into 6-well plate and treated with COH29 or cisplatin at different concentration for 24 hours. The cells were then trypsinized, washed, and analyzed by flow cytometry.

SMILES: O=C(Nc1nc(-c2ccc(O)c(O)c2)c(-c2ccccc2)s1)c1ccc(O)c(O)c1 [COH29, N-(4-(3,4-dihydroxyphenyl)-5-phenylthiazol-2-yl)-3,4-dihydroxybenzamide]
- xenograft tumor growth [1]: inhibited
- tumor ribonucleotide reductase activity ([2]; 100 mg/kg oral, 12 days): reduced
- intratumoral dNTF pools ([2]; oral COH29): decrease
- Genes (n): DNA ligation involved in DNA repair [3]: 3
- Genes (n): DNA repair [3]: 17
- Genes (n): DSB repair [3]: 7
- Genes (n): DSB repair via HR [3]: 5
- Genes (n): DSB repair via NHEJ [3]: 2
- DNA damage checkpoint (phosphorylation of ATM, CHK1, CHK2) [4]: activated the DNA damage checkpoint
- γ-H2AX level [4]: increase
- protein level of BRCA1 and Rad51 foci formation ([5]; A549, 24 h): suppressed
- γ-H2AX, phospho-p53 and phospho-ATM in the nucleus ([5]; A549, BRCA1 wild-type, 48 h): induced accumulation
- Rad51 expression in the nucleus ([5]; A549, BRCA1 wild-type, Western analysis): downregulated
- NHEJ repair efficiency [6]: little effect
